The source of these data is patent US20230348418A1, “ISOINDOLINONE COMPOUNDS” (Monte Rosa Therapeutics, Inc., priority 2021, published 2023).

Read-outs that look alike come from different tables or passages of the source.

Experiment [1] deals with CRBN-DDB1 (Homo sapiens, UniProt Q96SW2). Put plainly: HTRF binding of compounds to CRBN. As for the experimental part:
Compound activity was monitored in a Homogenous Time-Resolved Fluorescence (HTRF) assay using 1-[5-({2-[2-(2-{[2-(2,6-dioxopiperidin-3-yl)-1,3-dioxo-2,3-dihydro-1H-isoindol-4-yl]oxy}acetamido)ethoxy]ethyl}carbamoyl)pentyl]-3,3-dimethyl-2-[(1E,3E)-5-[(2E)-1,3,3-trimethyl-5-sulfo-2,3-dihydro-1H-indol-2-ylidene]penta-1,3-dien-1-yl]-3H-indol-1-ium-5-sulfonate as a fluorescent probe. […] Compounds were stored in dry, ambient temperatures at 10 mM. A 10-point, 1:3 dilution series was prepared from 10 mM stock concentrations in Echo-compatible LDV plates. 10 nL of each compound dilution series was dispensed into assays wells using an Echo 650 (Labcyte inc. USA). […] The assay was then allowed to incubate for 30 min at ambient temperature after transferring compound. […] Analysis and IC50 values were derived using KNIME analytics (KNIME Zurich) transformation and fitting within Collaborative Drug Discovery (Collaborative Drug Discovery USA). Ki was derived from the geometric mean of the IC50 values using the Cheng-Prustoff transformation.

Experiment [2] addresses T1, Full length wild-type cereblon CRBN (Homo sapiens, UniProt Q96SW2).
T1 construct: Full length wild-type cereblon CRBN (80.0 nM, 10 μL) was incubated in assay buffer
Briefly: Fluorescence polarization (FP) assay, cereblon binding. An excerpt: Compound activity was monitored in a fluorescence polarization (FP) homogeneous assay using 1-[5-({2-[2-(2-{[2-(2,6-dioxopiperidin-3-yl)-1,3-dioxo-2,3-dihydro-1H-isoindol-4-yl]oxy}acetamido)ethoxy]ethyl}carbamoyl)pentyl]-3,3-dimethyl-2-[(1E,3E)-5-[(2E)-1,3,3-trimethyl-5-sulfo-2,3-dihydro-1H-indol-2-ylidene]penta-1,3-dien-1-yl]-3H-indol-1-ium-5-sulfonate as a fluorescent probe. Unless otherwise stated, all reagents were purchased from Sigma Aldrich. […] Full length wild-type cereblon CRBN (80.0 nM, 10 μL) was incubated in assay buffer containing 20 mM HEPES (pH 8.0), […], 0.5 mM TCEP and 0.05% Tween 20 in the presence or absence of compound (300 nL). Inhibitors were stored as 10 mM DMSO stocks in an inert environment (low humidity, dark, low oxygen, room temperature) using the Storage Pod System. […] Following incubation at room temperature for 30 min, the assay was initiated by dispensing the probe to a final concentration of […] (2.5 nL of a 20 μM stock) using the Echo E5XX. […] The FP signal was subsequently normalized to the no-compound control (i.e., DMSO). Analysis and IC50 values were derived using Dotmatics (Dotmatics UK) software.

Setting [3] is: read-out: HTRF Class (Cereblon binding, HTRF IC50).
Setting [4] is: bounds stated in the text lists b2059-b2061, read-out: IC50 value.
The mark [5] stands for this setting: cereblon binding, class code, read-out: rFP IC50.
Setting [6] is: IC50 value, bounds stated in the text lists b2059-b2061.
Where [7] appears, read: rFP IC50 [nM], cereblon binding, class code.

T1 sequence (Q96SW2 whole entry): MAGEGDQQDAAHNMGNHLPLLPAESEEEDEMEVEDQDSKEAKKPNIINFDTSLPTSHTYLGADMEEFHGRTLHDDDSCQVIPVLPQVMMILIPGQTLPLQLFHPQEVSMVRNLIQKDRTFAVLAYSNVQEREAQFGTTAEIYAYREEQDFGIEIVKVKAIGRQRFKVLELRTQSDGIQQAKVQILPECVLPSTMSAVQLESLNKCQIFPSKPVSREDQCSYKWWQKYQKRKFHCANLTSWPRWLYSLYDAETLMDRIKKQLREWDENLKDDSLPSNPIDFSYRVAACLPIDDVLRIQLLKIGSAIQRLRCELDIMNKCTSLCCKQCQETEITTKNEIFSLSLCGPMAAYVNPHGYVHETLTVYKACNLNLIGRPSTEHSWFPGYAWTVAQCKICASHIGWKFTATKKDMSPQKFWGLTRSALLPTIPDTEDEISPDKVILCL
Sequence of CRBN-DDB1 (Q96SW2 whole entry): as above
Sequence of CRBN-DDB1 (Q16531 whole entry partner): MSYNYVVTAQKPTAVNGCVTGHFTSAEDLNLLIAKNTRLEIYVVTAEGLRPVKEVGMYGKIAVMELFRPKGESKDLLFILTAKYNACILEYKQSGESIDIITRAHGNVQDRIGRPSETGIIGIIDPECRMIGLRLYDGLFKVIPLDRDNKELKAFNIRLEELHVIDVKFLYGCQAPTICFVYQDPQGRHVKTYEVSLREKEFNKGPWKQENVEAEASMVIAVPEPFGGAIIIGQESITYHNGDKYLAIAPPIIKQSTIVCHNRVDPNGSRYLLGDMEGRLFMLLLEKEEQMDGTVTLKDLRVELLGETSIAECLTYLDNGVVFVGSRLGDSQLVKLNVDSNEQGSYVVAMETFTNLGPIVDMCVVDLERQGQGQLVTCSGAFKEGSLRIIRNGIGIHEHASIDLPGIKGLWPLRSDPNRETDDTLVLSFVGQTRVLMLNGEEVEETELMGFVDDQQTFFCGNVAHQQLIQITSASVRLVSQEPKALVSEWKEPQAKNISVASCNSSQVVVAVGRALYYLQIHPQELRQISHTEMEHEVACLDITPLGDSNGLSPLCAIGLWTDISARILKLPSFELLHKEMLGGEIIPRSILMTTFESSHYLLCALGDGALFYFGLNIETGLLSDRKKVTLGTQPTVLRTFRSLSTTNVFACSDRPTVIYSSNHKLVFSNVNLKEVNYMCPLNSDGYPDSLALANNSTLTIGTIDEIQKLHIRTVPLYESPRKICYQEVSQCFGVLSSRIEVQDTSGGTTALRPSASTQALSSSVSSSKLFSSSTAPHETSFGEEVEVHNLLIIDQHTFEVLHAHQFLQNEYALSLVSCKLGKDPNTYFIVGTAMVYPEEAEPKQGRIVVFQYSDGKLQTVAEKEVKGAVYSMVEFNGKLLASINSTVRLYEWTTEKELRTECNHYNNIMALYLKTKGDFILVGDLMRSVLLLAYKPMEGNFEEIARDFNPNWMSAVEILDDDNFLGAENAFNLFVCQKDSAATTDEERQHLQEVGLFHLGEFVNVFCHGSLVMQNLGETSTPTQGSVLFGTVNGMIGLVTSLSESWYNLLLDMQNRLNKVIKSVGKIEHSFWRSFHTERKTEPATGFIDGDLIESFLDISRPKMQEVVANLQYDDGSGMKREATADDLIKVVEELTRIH

As usually defined, the IC50 is the midpoint of a concentration-inhibition curve. As to `Cc1cc(NC(=O)OCc2ccc3c(c2)C(=O)N(C2CCC(=O)NC2=O)C3)ncc1N1CCC[C@H]1C` (stereo partly drawn) [Compound 237, (2-(2,6-dioxopiperidin-3-yl)-3-oxoisoindolin-5-yl)methyl (4-methyl-5-((R)-2-methylpyrrolidin-1-yl)pyridin-2-yl)carbamate], the half-maximal inhibitory concentration (IC50) in experiment [1] (setting [3]) is under 100 nM.

For `O=C1CCC(N2Cc3ccc(COC(=O)NC45CC(C4)C5)cc3C2=O)C(=O)N1` (stereo not shown) [Compound 193, (2-(2,6-dioxopiperidin-3-yl)-3-oxoisoindolin-5-yl)methyl bicyclo[1.1.1]pentan-1-ylcarbamate], in experiment [1] (setting [3]), the IC50 was in the range of 100 to 1000 nM.

`O=C1CCC(N2Cc3ccc(COC(=O)Nc4ccc(F)c(OC(F)F)c4F)cc3C2=O)C(=O)N1` (stereo not shown) [Compound 191, (2-(2,6-dioxopiperidin-3-yl)-3-oxoisoindolin-5-yl)methyl (3-(difluoromethoxy)-2,4-difluorophenyl) carbamate]: the IC50 in experiment [1] (setting [3]) lay within 100 to 1000 nM.

`CC(C)(C)c1ccc(F)c(NC(=O)OCc2ccc3c(c2)C(=O)N(C2CCC(=O)NC2=O)C3)c1` (stereo not shown) [Compound 235] had an IC50 in experiment [1] of 100 to 1000 nM.

For `CC(C)c1cccc(NC(=O)OCc2ccc3c(c2)C(=O)N(C2CCC(=O)NC2=O)C3)c1` (stereo not shown) [Compound 217, (2-(2,6-dioxopiperidin-3-yl)-3-oxoisoindolin-5-yl)methyl (3-isopropylphenyl)carbamate], the IC50 in experiment [1] (setting [3]) lay within 100 to 1000 nM.

As to `Cc1cc(NC(=O)OCc2ccc3c(c2)C(=O)N(C2CCC(=O)NC2=O)C3)ncc1N1CCCC1` (stereo not shown) [Compound 194, (2-(2,6-dioxopiperidin-3-yl)-3-oxoisoindolin-5-yl)methyl (4-methyl-5-(pyrrolidin-1-yl)pyridin-2-yl) carbamate], the IC50 in experiment [1] (setting [3]) fell in the range of 100 to 1000 nM.

In the case of `O=C1CCC(N2Cc3ccc(COC(=O)NC45CC(CF)(C4)C5)cc3C2=O)C(=O)N1` (stereo not shown) [Compound 202, (2-(2,6-dioxopiperidin-3-yl)-3-oxoisoindolin-5-yl)methyl (3-(fluoromethyl)bicyclo[1.1.1]pentan-1-yl) carbamate], the half-inhibitory concentration (IC50) in experiment [1] (setting [3]) lay within 100 to 1000 nM.

Regarding `O=C1CCC(N2Cc3ccc(COC(=O)Nc4ccc(C(O)C(F)(F)F)cc4)cc3C2=O)C(=O)N1` (stereo not shown) [Compound 209, (2-(2,6-dioxopiperidin-3-yl)-3-oxoisoindolin-5-yl)methyl (4-(2,2,2-trifluoro-1-hydroxyethyl)phenyl) carbamate], the IC50 in experiment [1] (setting [3]) lay within 100 to 1000 nM.

Take `Cc1cc(F)c(NC(=O)OCc2ccc3c(c2)C(=O)N(C2CCC(=O)NC2=O)C3)cc1C` (stereo not shown) [Compound 208, (2-(2,6-dioxopiperidin-3-yl)-3-oxoisoindolin-5-yl)methyl (2-fluoro-4,5-dimethylphenyl)carbamate]: in experiment [1] (setting [3]), the IC50 fell in the range of 100 to 1000 nM.

With `CC(C)Oc1ccc(F)c(NC(=O)OCc2ccc3c(c2)C(=O)N(C2CCC(=O)NC2=O)C3)c1` (stereo not shown) [Compound 221, (2-(2,6-dioxopiperidin-3-yl)-3-oxoisoindolin-5-yl)methyl (2-fluoro-5-isopropoxyphenyl)carbamate], the half-inhibitory concentration (IC50) in experiment [1] (setting [3]) was under 100 nM.

Consider `C[C@@H]1CCCN1c1cnc(NC(=O)OCc2ccc3c(c2)C(=O)N(C2CCC(=O)NC2=O)C3)c(F)c1` (stereo partly drawn) [Compound 232, (2-(2,6-dioxopiperidin-3-yl)-3-oxoisoindolin-5-yl)methyl (3-fluoro-5-((R)-2-methylpyrrolidin-1-yl)pyridin-2-yl)carbamate], for which the IC50 in experiment [1] (setting [3]) was under 100 nM.

Consider `O=C1CCC(N2Cc3ccc(COC(=O)NC45CC(C(F)F)(C4)C5)cc3C2=O)C(=O)N1` (stereo not shown) [Compound 219, (2-(2,6-dioxopiperidin-3-yl)-3-oxoisoindolin-5-yl)methyl (3-(difluoromethyl)bicyclo[1.1.1]pentan-1-yl) carbamate], for which the concentration for half-maximal inhibition (IC50) in experiment [1] (setting [3]) is under 100 nM.

Take `O=C1CCC(N2Cc3ccc(COC(=O)Nc4cc(OC(F)F)c(F)cn4)cc3C2=O)C(=O)N1` (stereo not shown) [Compound 227, (2-(2,6-dioxopiperidin-3-yl)-3-oxoisoindolin-5-yl)methyl (4-(difluoromethoxy)-5-fluoropyridin-2-yl)carbamate]: the IC50 in experiment [1] (setting [3]) was 100 to 1000 nM.

On to `O=C1CCC(N2Cc3ccc(COC(=O)NC45CC(c6ccccc6)(C4)C5)cc3C2=O)C(=O)N1` (stereo not shown) [Compound 126, (2-(2,6-dioxopiperidin-3-yl)-3-oxoisoindolin-5-yl)methyl (3-phenylbicyclo[1.1.1]pentan-1-yl carbamate], for which the IC50 in experiment [2] (setting [4]) was under 1100 nM.

Regarding `O=C1CCC(N2Cc3ccc(COC(=O)N4CCCC4)cc3C2=O)C(=O)N1` (stereo not shown) [Compound 26], the half-inhibitory concentration (IC50) in experiment [2] (setting [4]) is under 1700 nM; in experiment [2] (setting [5]), 500 to 1100 nM.

Consider `O=C1CCC(N2Cc3ccc(COC(=O)Nc4ccc(N5CCCC5)nc4)cc3C2=O)C(=O)N1` (stereo not shown) [Compound 60], for which the 50% inhibitory concentration (IC50) in experiment [2] (setting [4]) was under 1100 nM.

For the molecule `Cc1c(CN2CCOCC2)cc(NC(=O)OCc2ccc3c(c2)C(=O)N(C2CCC(=O)NC2=O)C3)cc1OC(F)F` (stereo not shown) [Compound 25], the results for the IC50 in experiment [2] (setting [4]) and in experiment [2] (setting [5]) were under 1700 nM and 500 to 1100 nM, respectively.

Take `O=C1CCC(N2Cc3ccc(COC(=O)Nc4cc(Cl)cc(OCC5CCNC5)c4)cc3C2=O)C(=O)N1` (stereo not shown) [Compound 16]: in experiment [2] (setting [4]), the IC50 is under 1100 nM.

Consider `O=C1CCC(N2Cc3ccc(COC(=O)Nc4cc(F)c(F)c(Cl)c4)cc3C2=O)C(=O)N1` (stereo not shown) [Compound 132], for which the 50% inhibitory concentration (IC50) in experiment [2] (setting [6]) is under 1100 nM; in experiment [2] (setting [7]), 500 to 1100 nM.

Regarding `O=C1CCC(N2Cc3ccc(COC(=O)Nc4cc(Cl)cc(OC5CCNC5)c4)cc3C2=O)C(=O)N1` (stereo not shown) [Compound 20], the IC50 in experiment [2] (setting [4]) is under 1700 nM; in experiment [2] (setting [5]) it was 1100 to 1700 nM.

In the case of `Cc1cc(NC(=O)OCc2ccc3c(c2)C(=O)N(C2CCC(=O)NC2=O)C3)cc(C)c1F` (stereo not shown) [Compound 124, (2-(2,6-dioxopiperidin-3-yl)-3-oxoisoindolin-5-yl)methyl (4-fluoro-3,5-dimethylphenyl)carbamate], the half-maximal inhibitory concentration (IC50) in experiment [2] (setting [4]) was under 1100 nM.

For `O=C1CCC(N2Cc3ccc(COC(=O)Nc4ccc(N5CCOCC5)nc4)cc3C2=O)C(=O)N1` (stereo not shown) [Compound 76], the half-maximal inhibitory concentration (IC50) was under 1700 nM in experiment [2] (setting [4]) and 500 to 1100 nM in experiment [2] (setting [5]).

With `Cc1ccc(OC(F)(F)F)cc1NC(=O)OCc1ccc2c(c1)C(=O)N(C1CCC(=O)NC1=O)C2` (stereo not shown) [Compound 128], the half-inhibitory concentration (IC50) was under 1100 nM in experiment [2] (setting [6]) and 500 to 1100 nM in experiment [2] (setting [7]).

`Cc1cc(NC(=O)OCc2ccc3c(c2)C(=O)N(C2CCC(=O)NC2=O)C3)cc(C)c1C#N` (stereo not shown) [Compound 108] gave a half-inhibitory concentration (IC50) in experiment [2] (setting [6]) of under 1100 nM.

On to `O=C1CCC(N2Cc3ccc(COC(=O)Nc4ccc(C5CC5)nc4)cc3C2=O)C(=O)N1` (stereo not shown) [Compound 80], for which the half-inhibitory concentration (IC50) in experiment [2] (setting [4]) was under 1100 nM.

On to `C[C@@H]1CCCN1c1ccc(NC(=O)OCc2ccc3c(c2)C(=O)N(C2CCC(=O)NC2=O)C3)cn1` (stereo partly drawn) [Compound 157, (2-(2,6-dioxopiperidin-3-yl)-3-oxoisoindolin-5-yl)methyl (6-((R)-2-methylpyrrolidin-1-yl)pyridin-3-yl)carbamate], for which, in experiment [2] (setting [4]), the half-maximal inhibitory concentration (IC50) is under 1100 nM.

In the case of `O=C1CCC(N2Cc3ccc(COC(=O)Nc4ccc(N5CCC5)nc4)cc3C2=O)C(=O)N1` (stereo not shown) [Compound 107], in experiment [2] (setting [4]), the IC50 is under 1100 nM.

As for `Cc1cc(Cl)cc(NC(=O)OCc2ccc3c(c2)C(=O)N(C2CCC(=O)NC2=O)C3)c1` (stereo not shown) [Compound 144, (2-(2,6-dioxopiperidin-3-yl)-3-oxoisoindolin-5-yl)methyl (3-chloro-5-methylphenyl)carbamate], the IC50 is under 1700 nM in experiment [2] (setting [4]) and 1100 to 1700 nM in experiment [2] (setting [5]).

For the molecule `O=C1CCC(N2Cc3ccc(COC(=O)NC4CCN(c5ccccn5)CC4)cc3C2=O)C(=O)N1` (stereo not shown) [Compound 35], the IC50 in experiment [2] (setting [4]) was under 1100 nM.

Take `O=C1CCC(N2Cc3ccc(COC(=O)Nc4cc(C(F)(F)F)ns4)cc3C2=O)C(=O)N1` (stereo not shown) [Compound 139]: the IC50 in experiment [2] (setting [6]) is under 1100 nM; in experiment [2] (setting [7]), 500 to 1100 nM.

Take `O=C1CCC(N2Cc3ccc(COC(=O)Nc4ccc5c(c4)CCO5)cc3C2=O)C(=O)N1` (stereo not shown) [Compound 66]: the half-maximal inhibitory concentration (IC50) in experiment [2] (setting [4]) was under 1100 nM.

For the molecule `CC1(c2ccc(NC(=O)OCc3ccc4c(c3)C(=O)N(C3CCC(=O)NC3=O)C4)cn2)CC1` (stereo not shown) [Compound 152, (2-(2,6-dioxopiperidin-3-yl)-3-oxoisoindolin-5-yl)methyl (6-(1-methylcyclopropyl)pyridin-3-yl)carbamate], in experiment [2] (setting [4]), the IC50 was under 1100 nM.

As to `CCc1cc(NC(=O)OCc2ccc3c(c2)C(=O)N(C2CCC(=O)NC2=O)C3)ccn1` (stereo not shown) [Compound 63], the IC50 in experiment [2] (setting [4]) was under 1100 nM.

`O=C1CCC(N2Cc3ccc(COC(=O)Nc4cc(OCCN5CCOCC5)cc(OC(F)(F)F)c4)cc3C2=O)C(=O)N1` (stereo not shown) [Compound 106]: the IC50 in experiment [2] (setting [4]) was under 1700 nM; in experiment [2] (setting [5]) it was 500 to 1100 nM.
